Drawing on US8143393B2, “Substituted 4-amino-pyrrolotriazine derivatives useful for treating hyper-proliferative disorders and diseases associated with angiogenesis” (Bayer HealthCare LLC, priority 2005, dated 2012), this text covers IC50 for 10 molecules.

Test [1] concerns histone 3 phosphorylation in colon carcinoma (HCT116). As to the kind of experiment: p-Histone3 assay. In kind it is cell-based. The settings on record: Homo sapiens, HCT-116, 24 h, HCT116, 24 h treatment. Here is the method: Compounds were assayed for the inhibition of histone 3 phosphorylation in colon carcinoma (HCT116). Briefly, 20,000 cells/well were seeded in a 96-well black-walled, poly-d-lysine plates in RPMI+10% FBS and incubated at 37° C. in 5% CO2 overnight. The following day, the cells were treated with compounds for 24 hours at 37° C. Following compound treatment; plates were centrifuged at 1000 rpm for 2 minutes and washed twice with 100 μl of cold sterile TBS. Cells were then fixed with cold 3.7% formaldehyde in TBS (4° C. for 1 hour) and then permeabolized with 0.1% Triton-X-100 in TBS (room temperature for 30 minutes). Plates were then washed with of 0.25% BSA-TBS and blocked with BSA solution for 1 hour at room temperature while shaking. The supernatant was removed and replaced with diluted primary antibody (anti-phospho-histone 3, serine 10, Cell Signaling) at 1:250 in 0.25% BSA-TBS and incubated overnight at 4° C. The plates were washed and treated with diluted secondary antibody (anti-rabbit Eu-labeled) at 1:10000 in 0.25% BSA-TBS (room temperature for 1 hour). The antibody solution was removed from each well and washed eight times. The wash buffer was replaced with 50 μl pre-warmed enhancement solution and mixed on the orbital shaker for 10 minutes. Fluorescence was detected with a Victor V Fluorescence Detector. The data are expressed as percent inhibition: % inhibition=100−((Signal with inhibitor−background)/(Signal without inhibitor−background))−100.

The next test has as its target T1, FGFR-1 (Homo sapiens, UniProt P11362).
T1 construct: GST; made in house
Put plainly: FGFR-1 TR-FRET biochemical assay. As to conditions: 0.6 uM ATP, 5 nM FGFR1-GST; bounds given in nM. In a few lines:
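In this LANCE time-resolved FRET format, compounds at final 10 μM–0.128 nM (1% DMSO, 1:5 series) were preincubated before enzyme start. Reactions ran for one hour at room temperature with 0.6 uM ATP, 25 nM biotinylated poly GT and 5 nM GST-tagged FGFR1. Inhibition was calculated from the 665/615 nm ratio minus the ATP-free background.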

[2] abbreviates: lower bound of the bin 'greater than 500 nM but less than 5 μM'.

Where only a bound is given, the exact number is not on record here.

T1 sequence (P11362 22-822): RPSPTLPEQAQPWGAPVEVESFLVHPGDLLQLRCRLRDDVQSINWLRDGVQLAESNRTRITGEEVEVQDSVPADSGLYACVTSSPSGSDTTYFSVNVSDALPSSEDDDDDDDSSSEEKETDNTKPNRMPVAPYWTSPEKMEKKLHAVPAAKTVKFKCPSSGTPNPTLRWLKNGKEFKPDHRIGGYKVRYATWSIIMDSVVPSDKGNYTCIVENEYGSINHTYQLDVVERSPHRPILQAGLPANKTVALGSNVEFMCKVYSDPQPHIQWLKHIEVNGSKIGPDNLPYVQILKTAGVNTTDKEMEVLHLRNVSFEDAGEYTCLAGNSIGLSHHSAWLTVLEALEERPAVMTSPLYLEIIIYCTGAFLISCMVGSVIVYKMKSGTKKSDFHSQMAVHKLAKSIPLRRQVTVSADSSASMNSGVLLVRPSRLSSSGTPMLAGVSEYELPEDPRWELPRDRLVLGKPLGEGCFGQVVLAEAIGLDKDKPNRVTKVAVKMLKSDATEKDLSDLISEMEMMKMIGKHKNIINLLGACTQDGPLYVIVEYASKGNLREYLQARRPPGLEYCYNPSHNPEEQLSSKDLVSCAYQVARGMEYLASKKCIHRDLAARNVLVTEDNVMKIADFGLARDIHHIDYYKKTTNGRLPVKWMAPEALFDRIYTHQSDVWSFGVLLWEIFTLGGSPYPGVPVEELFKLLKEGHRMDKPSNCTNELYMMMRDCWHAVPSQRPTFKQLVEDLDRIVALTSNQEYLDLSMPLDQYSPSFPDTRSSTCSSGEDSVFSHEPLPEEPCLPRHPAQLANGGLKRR

As to `Nc1ncnn2c(CN3CCNCC3)cc(-c3ccc(NC(=O)Nc4cccc(Br)n4)cc3)c12` [Example 91, N-4-[4-amino-7-(piperazin-1-ylmethyl)pyrrolo[2,1-f][1,2,4]-triazin-5-yl]phenyl-N′-(6-bromopyridin-2-yl)urea], the IC50 – broadly, the concentration that inhibits the measured activity by half – in test [1] (bounds given in μM) is below 5 µM; in test [1] (setting [2]) it was above 0.5 µM.

As for `COc1ccc(C(C)(C)C)cc1NC(=O)Nc1ccc(-c2cc(CN3CCOCC3)n3ncnc(N)c23)cc1` [Example 44, N-{4-[4-amino-7-(morpholin-4-ylmethyl)pyrrolo[2,1-f][1,2,4]triazin-5-yl]phenyl}-N′-(5-tert-butyl-2-methoxyphenyl)urea], the 50% inhibitory concentration (IC50) lay in the range of 10 to 100 nM against FGFR-1 and 5 to 10 µM in test [1] (bounds given in μM).

`Nc1ncnn2c(CO)cc(-c3ccc(NC(=O)Nc4cccc(C(F)(F)F)n4)cc3)c12` [Example 105, N-{4-[4-amino-7-(hydroxymethyl)pyrrolo[2,1-f][1,2,4]triazin-5-yl]phenyl}-N′-[6-(trifluoromethyl)pyridin-2-yl]urea]: the concentration for half-maximal inhibition (IC50) was below 5 µM in test [1] (bounds given in μM) and above 0.5 µM in test [1] (setting [2]).

`Nc1ncnn2c(CN3CCOCC3)cc(-c3ccc(NC(=O)Nc4cccc(Br)n4)c(F)c3)c12` [Example 73, N-4-[4-amino-7-(morpholin-4-ylmethyl)pyrrolo[2,1-f][1,2,4]-triazin-5-yl]-2-fluorophenyl-N′-(6-bromopyridin-2-yl)urea] showed an IC50 in test [1] (bounds given in μM) of 5 to 10 µM.

As for `Cc1ccc(F)c(NC(=O)Nc2ccc(-c3cc(CN4CCOCC4)n4ncnc(N)c34)cc2)c1` [Example 46, N-{4-[4-amino-7-(morpholin-4-ylmethyl)pyrrolo[2,1-f][1,2,4]triazin-5-yl]phenyl}-N′-(2-fluoro-5-methylphenyl)urea], the IC50 in test [1] (bounds given in μM) is 5 to 10 µM.

Regarding `Nc1ncnn2c(CN3CCOCC3)cc(-c3ccc(NC(=O)Nc4cccc(C(F)(F)F)c4)c(F)c3)c12` [Example 10, N-{4-[4-amino-7-(morpholin-4-ylmethyl)pyrrolo[2,1-f][1,2,4]triazin-5-yl]-2-fluorophenyl}-N′-[3-(trifluoromethyl)phenyl]urea], the IC50 was below 10 nM at FGFR-1, below 5 µM in test [1] (bounds given in μM) and above 0.5 µM in test [1] (setting [2]).

`Nc1ncnn2c(CN3CCOCC3)cc(-c3ccc(NC(=O)Nc4ccc(C(F)(F)F)cn4)cc3)c12` [Example 56, N-{4-[4-amino-7-(morpholin-4-ylmethyl)pyrrolo[2,1-f][1,2,4]-triazin-5-yl]phenyl}-N′-[5-(trifluoromethyl)pyridin-2-yl]urea] had a 50% inhibitory concentration (IC50) in test [1] (bounds given in μM) of 5 to 10 µM.

Take `CC(=O)N1CCN(Cc2cc(-c3ccc(NC(=O)Nc4cccc(Br)n4)cc3)c3c(N)ncnn23)CC1` [Example 93, N-(4-7-[(4-acetylpiperazin-1-yl)methyl]-4-aminopyrrolo[2,1-f][1,2,4]triazin-5-ylphenyl)-N′-(6-bromopyridin-2-yl)urea]: the values for the half-maximal inhibitory concentration (IC50) in test [1] (bounds given in μM) and in test [1] (setting [2]) were below 5 µM and above 0.5 µM, respectively.

For the molecule `Nc1ncnn2c(CN3CCOCC3)cc(-c3cc(F)c(NC(=O)Nc4cc(C(F)(F)F)ccc4F)cc3F)c12` [Example 15, N-{4-[4-amino-7-(morpholin-4-ylmethyl)pyrrolo[2,1-f][1,2,4]triazin-5-yl]-2,5-difluorophenyl}-N′-[2-fluoro-5-(trifluoromethyl)phenyl]urea], the values for the concentration for half-maximal inhibition (IC50) (at FGFR-1; in test [1] (bounds given in μM); in test [1] (setting [2])) were below 10 nM, below 5 µM and above 0.5 µM, respectively.

Take `Cc1cc(-c2cc(CN3CCOCC3)n3ncnc(N)c23)ccc1NC(=O)Nc1cc(C(F)(F)F)ccc1F` [Example 25, N-{4-[4-amino-7-(morpholin-4-ylmethyl)pyrrolo[2,1-f][1,2,4]triazin-5-yl]-2-methylphenyl}-N′-[2-fluoro-5-(trifluoromethyl)phenyl]urea]: the half-maximal inhibitory concentration (IC50) on FGFR-1 was below 10 nM; in test [1] (bounds given in μM) it was below 5 µM; in test [1] (setting [2]) it was above 0.5 µM.
